Test results as given in paper PMC4669708 (Cell Death & Disease, 2015).

What was measured:
[1] = test system: FADD-deficient Jurkat cells; assay: TNF-α-induced necroptosis, cell viability (CellTiter Glo); type: cell-based, human; conditions: 10 ng/ml TNF-α overnight
Experimental: (§1) Cells were seeded in 12-, 24- or 96-well plates at proper cell density. For necroptosis or apoptosis assays, cells were incubated with the indicated compound combinations at concentrations stated for 14–24 h. Smac mimetic and z-VAD-FMK were added 30–60 min before treatment with TNF-α, FasL or TRAIL. Cell viability was determined using CellTiter Glo Luminescent Cell Viability Assay (Promega, Fitchburg, WI, USA) according to the manufacturer's instructions. Luminescence was recorded with a SpectraMax M5Multimode plate reader (Molecular Devices, Sunnyvale, CA, USA). For flow cytometry-based determination of viability, cells were harvested, collected by centrifugation, washed once and resuspended in staining buffer (1 × PBS, 10% FBS). Cells were incubated with 0.5 μg/ml PI for 10 min at room temperature (RT) in the dark. Flow cytometric analyses were performed on an LSR Fortessa (BD Biosciences) and analyzed with FlowJo software version 7.6.3 (Tree Star Inc, Ashland, OR, USA). Cell size was evaluated by forward scatter. PI-negative normal-sized cells were considered living and data were normalized to values of untreated controls.
The compounds were transferred into drug plates by acoustic droplet ejection using an Echo 520 liquid handler (LABCYTE, Sunnyvale, CA, USA). Necroptosis was induced in FADD-deficient Jurkat cells by addition of 10 ng/ml TNF-α immediately before seeding onto drug plates at a density of 1x10^4 cells/well. After 16 h incubation, cell viability was determined using CellTiter Glo Luminescent Cell Viability Assay according to manufacturer's instructions. Data analysis was performed by calculating a percentage of control to normalize for variability across different plates. The signal for the negative control DMSO wells was set to 0%, whereas the wells containing the positive control Nec-1 were put to 100% for each plate individually.

[2] = Chemical proteomics, c-ponatinib drug pull-down, LCMS-MS; type: binding, human; conditions: c-ponatinib matrix, competition with free ponatinib; cells 2 h TNF-α
Experimental: Drug-affinity matrices were prepared as described previously.[51] In brief, 25 nmol of c-ponatinib were immobilized on 50 μl NHS-activated Sepharose 4 Fast Flow beads (GE Healthcare Bio-Sciences AB, Uppsala, Sweden). 10 mg whole cell lysate was used as protein input per replicate. Affinity chromatography and elution were performed in duplicate. After elution, the enriched proteins were reduced with dithiothreitol (DTT) and cysteine residues were alkylated by incubation with iodoacetamide. The samples were digested with modified porcine trypsin (Promega). Five percent of the digested eluates were purified and concentrated by C18 reversed-phase material. Subsequently, samples were analyzed in duplicates by gel-free one-dimensional LCMS.
Precursor and MS/MS peaks were extracted from the RAW files and saved in the MGF format using msconvert tool (ProteoWizard Library v2.1.2708, www.proteowizard.sourceforge.net) for subsequent protein identification. […] The initial peptide identifications were used to deduce independent linear transformations for precursor and fragment masses that would minimize the mean square deviation of measured masses from theoretical. […] A false discovery rate of <1% for protein identifications and <0.1% for peptides (including the ones exported with lower scores) was determined by applying the same procedure against a database of reversed protein sequences. […]

[3] = test system: FADD-deficient Jurkat cells; assay: Flow cytometry viability (propidium iodide / forward scatter), TNFα-induced necroptosis; type: cell-based; conditions: human, 6 h
Experimental: as §1, with “controls. For detection of apoptosis, cells were resuspended in Annexin V Binding Buffer (BioLegend, San Diego, CA, USA) and stained with 0.5 μg/ml PI and Alexa Fluor 647 Annexin V (BioLegend) according to manufacturer's instructions.” for “controls.”

Jurkat E6.1 cells = assay: FasL-induced apoptosis, cell viability; type: cell-based; conditions: 100 ng/ml human FasL, 24 h; 0.5 μM ponatinib, 5 μM pazopanib
Experimental: as §1, with “controls. For detection of apoptosis, cells were resuspended in Annexin V Binding Buffer (BioLegend, San Diego, CA, USA) and stained with 0.5 μg/ml PI and Alexa Fluor 647 Annexin V (BioLegend) according to manufacturer's instructions.” for “controls.”

HT-29 cells = assay: TNF-α/Smac mimetic/z-VAD-FMK (TSZ)-induced necroptosis, cell viability; type: cell-based, human; conditions: Homo sapiens, HT-29; TSZ treatment; read-out: EC50 (necroptosis block)
Experimental: as §1

L929 cells = assay: TNF-α/z-VAD-FMK-induced necroptosis; type: cell-based, murine; conditions: Supplementary Figures 3c, d
Experimental: as §1, with “controls. For detection of apoptosis, cells were resuspended in Annexin V Binding Buffer (BioLegend, San Diego, CA, USA) and stained with 0.5 μg/ml PI and Alexa Fluor 647 Annexin V (BioLegend) according to manufacturer's instructions.” for “controls.”

Row | SMILES | block of necroptosis compared with ponatinib ([1]; Figure 3b) | kinases identified as specific binders (number) [2] | non-kinase proteins identified as specific binders (number) [2] | viable cells [3] | rescue of cell viability in drug screen ([1]; 0.5 and 1.5 μM) | EC50 ([1]; Homo sapiens, Jurkat, CellTiter Glo, read-out: EC50 for inhibiting necroptosis) [nM] | inhibition of apoptotic cell death triggered by FasL (Jurkat E6.1 cells) | EC50 (HT-29 cells) [nM] | protection from necroptosis (L929 cells)
1 | Cc1ccc(C(=O)Nc2ccc(CN3CCN(CCCN)CC3)c(C(F)(F)F)c2)cc1C#Cc1cnc2cccnn12 [c-ponatinib] | blocked necroptosis with only a minor reduction in potency | – | – | – | – | – | – | – | –
2 | Cc1ccc(C(=O)Nc2ccc(CN3CCN(C)CC3)c(C(F)(F)F)c2)cc1C#Cc1cnc2cccnn12 [ponatinib, Ponatinib] | – | 38 | 22 | 79,3% | robustly rescued cell viability at both concentrations | 89 | none of the drugs inhibited apoptotic cell death | 50 | the effect was partial and confined to a small dosage window around 100 nM
